From PubChem BioAssay AID328 (DTP/NCI, 2004) come the findings set out here.

The test system of the experiment is BDF1 mice, P388 leukemia ip, median survival T/C. The experiment in a line: NCI In Vivo Anticancer Drug Screen. Data for tumor model P388 Leukemia (intraperitoneal) in B6D2F1 (BDF1) mice. The conditions noted are these: endpoint: median survival time, higher = longer survival. The gist of the method:
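Each value expresses how treatment altered survival: treated-mouse outcome over vehicle-mouse outcome, both groups bearing the transplanted tumour.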

The mark [1] stands for this setting: dose: 100.0 mg/kg/injection, schedule: Q01DX009 (ip), vehicle: Klucel (hydroxypropylcellulose) (HPC).
Where [2] appears, read: dose: 25.0 mg/kg/injection, schedule: Q01DX009 (ip), vehicle: saline with Tween-80.
Setting [3] is: dose: 200.0 mg/kg/injection, schedule: Q01DX009 (ip), vehicle: saline with Tween-80.

Values joined by “and” are separate entries in the source; they are usually repeats but may differ in a detail not shown here. Equal values may be shown once. Toxic doses and inconclusive results are not listed.

With `CN1CC2CC(C1)c1cccc(=O)n1C2` (stereo not drawn), the T/C is, setting by setting: (dose: 5.0 mg/kg/injection, schedule: Q01DX010 (ip), vehicle: saline) 86 % of control; (dose: 10.0 mg/kg/injection, schedule: Q01DX010 (ip), vehicle: saline) 109 % of control; (dose: 20.0 mg/kg/injection, schedule: Q01DX010 (ip), vehicle: saline) 104 % of control; (dose: 40.0 mg/kg/injection, schedule: Q01DX010 (ip), vehicle: saline) 95 % of control.

For `CN=C(N)c1ccc(N=C(N)c2ccc(N=C(N)c3ccc(NC(=O)Nc4cccc(NC(=O)Nc5ccc(C(N)=Nc6ccc(C(N)=Nc7ccc(C(N)=NC)cc7)cc6)cc5)c4)cc3)cc2)cc1`, the T/C is 119 % of control (dose: 0.8 mg/kg/injection, schedule: Q01DX009 (ip), vehicle: saline with Tween-80); 162 % of control (dose: 3.0 mg/kg/injection, schedule: Q01DX009 (ip), vehicle: saline with Tween-80); 150 % of control (dose: 4.5 mg/kg/injection, schedule: Q04DX003 (ip), vehicle: saline with Tween-80); 175 % of control and 195 % of control (dose: 5.0 mg/kg/injection, schedule: Q01DX009 (ip), vehicle: saline with Tween-80); 150 % of control (dose: 7.0 mg/kg/injection, schedule: Q04DX003 (ip), vehicle: saline with Tween-80); 212 % of control (dose: 8.0 mg/kg/injection, schedule: Q01DX009 (ip), vehicle: saline with Tween-80). The T/C (dose: 11.0 mg/kg/injection, schedule: Q04DX003 (ip), vehicle: saline with Tween-80) is 154 % of control; the T/C (dose: 12.0 mg/kg/injection, schedule: Q01DX009 (ip), vehicle: saline with Tween-80) was 168 % of control and 170 % of control; the T/C (dose: 17.0 mg/kg/injection, schedule: Q04DX003 (ip), vehicle: saline with Tween-80) was 170 % of control and 179 % of control; the T/C (dose: 18.0 mg/kg/injection, schedule: Q01DX009 (ip), vehicle: saline with Tween-80) is 240 % of control and 192 % of control; the T/C (dose: 25.0 mg/kg/injection, schedule: Q04DX003 (ip), vehicle: saline with Tween-80) was 200 % of control; the T/C (dose: 27.0 mg/kg/injection, schedule: Q01DX009 (ip), vehicle: saline with Tween-80) is 200 % of control. The T/C is 100 % of control (dose: 37.0 mg/kg/injection, schedule: Q01DX009 (ip), vehicle: saline with Tween-80); 166 % of control and 191 % of control (dose: 37.0 mg/kg/injection, schedule: Q04DX003 (ip), vehicle: saline with Tween-80); 181 % of control (dose: 37.5 mg/kg/injection, schedule: Q04DX003 (ip), vehicle: saline with Tween-80); 158 % of control and 195 % of control (dose: 55.0 mg/kg/injection, schedule: Q04DX003 (ip), vehicle: saline with Tween-80).

`CCOC(=O)C(C)[P+](c1ccccc1)(c1ccccc1)c1ccccc1` (stereo not drawn): the T/C runs as follows: (dose: 1.0 mg/kg/injection, schedule: Q01DX009 (ip), vehicle: saline) 115 % of control; (dose: 1.5 mg/kg/injection, schedule: Q01DX009 (ip), vehicle: saline) 103 % of control; (dose: 1.5 mg/kg/injection, schedule: Q04DX003 (ip), vehicle: saline) 90 % of control; (dose: 2.25 mg/kg/injection, schedule: Q01DX009 (ip), vehicle: saline) 100 % of control; (dose: 3.0 mg/kg/injection, schedule: Q01DX009 (ip), vehicle: saline) 118 % of control; (dose: 3.0 mg/kg/injection, schedule: Q04DX003 (ip), vehicle: saline) 104 % of control. In addition, for the setting “dose: 6.0 mg/kg/injection, schedule: Q04DX003 (ip), vehicle: saline”, the T/C was 90 % of control.

For `O=C(OC1COC(n2c(=O)oc3ccc(F)cc32)C(OC(=O)c2ccccc2)C1OC(=O)c1ccccc1)c1ccccc1` (stereo not drawn), the T/C was 104 % of control under setting [1]; 113 % of control (dose: 100.0 mg/kg/injection, schedule: Q04DX003 (ip), vehicle: Klucel (hydroxypropylcellulose) (HPC)); 100 % of control (dose: 200.0 mg/kg/injection, schedule: Q01DX009 (ip), vehicle: Klucel (hydroxypropylcellulose) (HPC)); 100 % of control (dose: 200.0 mg/kg/injection, schedule: Q04DX003 (ip), vehicle: Klucel (hydroxypropylcellulose) (HPC)); 90 % of control (dose: 400.0 mg/kg/injection, schedule: Q01DX009 (ip), vehicle: Klucel (hydroxypropylcellulose) (HPC)); 95 % of control (dose: 400.0 mg/kg/injection, schedule: Q04DX003 (ip), vehicle: Klucel (hydroxypropylcellulose) (HPC)).

On to `O=C(O)CC(O)(CC(=O)O)C(=O)O.[Ga]`, for which the T/C (dose: 75.0 mg/kg/injection, schedule: Q01DX009 (ip), vehicle: saline) is 114 % of control; the T/C (dose: 112.5 mg/kg/injection, schedule: Q01DX009 (ip), vehicle: saline) was 90 % of control; the T/C (dose: 132.0 mg/kg/injection, schedule: Q04DX003 (ip), vehicle: saline) is 115 % of control; the T/C (dose: 200.0 mg/kg/injection, schedule: Q04DX003 (ip), vehicle: saline) is 110 % of control; the T/C (dose: 300.0 mg/kg/injection, schedule: Q04DX003 (ip), vehicle: saline) is 110 % of control.

In the case of `Cc1c2cnccc2c(C)c2c1c1ccccc1n2CC1CO1` (stereo not drawn), the T/C was 150 % of control (dose: 9.37 mg/kg/injection, schedule: Q01DX009 (ip), vehicle: Klucel (hydroxypropylcellulose) (HPC)); 168 % of control (dose: 11.0 mg/kg/injection, schedule: Q01DX009 (ip), vehicle: saline with Tween-80); 176 % of control (dose: 16.5 mg/kg/injection, schedule: Q01DX009 (ip), vehicle: saline with Tween-80); 106 % of control under setting [2]; 95 % of control (dose: 37.5 mg/kg/injection, schedule: Q01DX009 (ip), vehicle: saline with Tween-80).

`CCOC(=O)C(OCc1ccccc1)(C(=O)NCCc1ccc(OC)c(OC)c1)C(C)C` (stereo not drawn): the T/C reads like this: (dose: 25.0 mg/kg/injection, schedule: Q04DX003 (ip), vehicle: other) 100 % of control; (dose: 50.0 mg/kg/injection, schedule: Q04DX003 (ip), vehicle: other) 108 % of control; (dose: 100.0 mg/kg/injection, schedule: Q04DX003 (ip), vehicle: other) 93 % of control.

With `CC(=O)OCC1OC(OC2=C(CC=C(Cl)Cl)C(=O)c3ccccc3C2=O)C(OC(C)=O)C(OC(C)=O)C1OC(C)=O` (stereo not drawn), the T/C under setting [2] is 100 % of control; the T/C (dose: 50.0 mg/kg/injection, schedule: Q01DX009 (ip), vehicle: saline with Tween-80) is 100 % of control and 104 % of control; the T/C (dose: 100.0 mg/kg/injection, schedule: Q01DX009 (ip), vehicle: saline with Tween-80) was 100 % of control and 102 % of control; the T/C under setting [3] was 117 % of control.

Turning to `CCO/C=C(\C#N)C(=O)O`, the T/C was 88 % of control (dose: 100.0 mg/kg/injection, schedule: Q04DX003 (ip), vehicle: saline with Tween-80); 111 % of control under setting [3]; 88 % of control (dose: 200.0 mg/kg/injection, schedule: Q04DX003 (ip), vehicle: saline with Tween-80); 119 % of control (dose: 400.0 mg/kg/injection, schedule: Q01DX009 (ip), vehicle: saline with Tween-80); 92 % of control (dose: 400.0 mg/kg/injection, schedule: Q04DX003 (ip), vehicle: saline with Tween-80).

In the case of `CS(=O)(=O)C(F)(F)C(F)(F)C(F)(F)C(F)(F)F`, the T/C (dose: 50.0 mg/kg/injection, schedule: Q01DX009 (ip), vehicle: saline) is 101 % of control; the T/C (dose: 100.0 mg/kg/injection, schedule: Q01DX009 (ip), vehicle: saline) was 101 % of control; the T/C (dose: 200.0 mg/kg/injection, schedule: Q01DX009 (ip), vehicle: saline) is 106 % of control.

`CCCCCCCCCCCCN(CCC(=O)O)S(=O)(=O)O`: the T/C is 95 % of control (dose: 25.0 mg/kg/injection, schedule: Q01DX009 (ip), vehicle: Klucel (hydroxypropylcellulose) (HPC)); 104 % of control (dose: 50.0 mg/kg/injection, schedule: Q01DX009 (ip), vehicle: Klucel (hydroxypropylcellulose) (HPC)); 100 % of control (dose: 75.0 mg/kg/injection, schedule: Q04DX003 (ip), vehicle: Klucel (hydroxypropylcellulose) (HPC)); 90 % of control under setting [1]; 100 % of control (dose: 150.0 mg/kg/injection, schedule: Q04DX003 (ip), vehicle: Klucel (hydroxypropylcellulose) (HPC)).
